Test results from patent US9714239B2, “N-phenyl-lactam derivatives capable of stimulating neurogenesis and their use in the treatment of neurological disorders” (Hoffmann-La Roche Inc., priority 2014, dated 2017).

tested on: human embryonic stem cell derived neural stem cells (NSCs); experiment: Neurogenesis assay: neural stem cell proliferation assay; conditions: 96 h, compound concentration at which 150% activity of control (100%) is reached, increase in cells based on ATP levels (CellTiterGlo), 4 days incubation, dose response 8 μM to 8 nM
Description: Neural Stem Cell Proliferation Assay
Neurogenic properties of small molecules are determined based on the proliferation of human embryonic stem cell derived neural stem cells (NSCs) which were derived via a dual smad inhibition as previously described (Chambers, S. M., et al., Highly efficient neural conversion of human ES and iPS cells by dual inhibition of SMAD signaling, Nature biotechnology, 2009 27(3): p. 275-80.).
Compounds response is measured by the increase in cells based on ATP levels (Promega:CellTiterGlo®) after an incubation period of 4 days. NSCs are thawed and expanded over 3 passages. On the 14th day, NSCs are seeded in Polyornithin/Laminin coated 384 well plates at a cell density of 21,000 cells/cm^2 in a media volume of 38 μl.
4 hours after cell seeding, compound solutions are added at a volume of 2 μl. Stock solutions of the compounds (water, 5% DMSO) are diluted to obtain a dose response (11 points, dilution factor is 2), ranging from 8 μM to 8 nM. Controls are run to consistently determine the neurogenic properties of the cells:
Negative (neutral) control is cell culture Media (final DMSO concentration: 0.25%).
1. cell culture Media+100 ng/ml FGF2 (final DMSO concentration: 0.1%)
2. cell culture Media+20 ng/ml EGF (final DMSO concentration: 0.1%)
3. cell culture Media+100 ng/ml Wnt3a (final DMSO concentration: 0.1%)
After 4 days incubation at 37° C., 5% CO2, the amount of ATP per well is quantified. The ATP concentration is proportional to the cell number. ATP is quantified by using the Promega CellTiterGlo® kit. The CellTiterGlo® reagents contain a cell lysis buffer, a thermo stable luciferase (UltraGlo™ recombinant luciferase), magnesium and luciferin. Luciferin reacts with ATP producing oxyluciferin, AMP and light. The luminescence signal is proportional to the ATP content.
The value of negative (neutral) control is determined for each assay plate by taking the average of 16 negative control wells. The neurogenic compound response is calculated for each compound as (compound/Negative Control)*100. The values of EC150 from the dose response curve are determined for each test compound. The EC150 is the compound concentration at which 150% activity of control (100%) is reached.

SMILES	EC (150% of control)
CCC1(c2ccccc2)CCN(c2ccc(-c3cnco3)c(OC)c2)C1=O (stereo not drawn) [Example 1, 3-Ethyl-1-(3-methoxy-4-(oxazol-5-yl)phenyl)-3-phenylpyrrolidin-2-one]	3.23 µM
O=C1N(Cc2ccccc2)CCN1c1ccc(-c2ccncc2)cc1 [Example 2, 1-Benzyl-3-(4-(pyridin-4-yl)phenyl)imidazolidin-2-one]	1.04 µM
COc1cccc(C2CCN(c3ccc(-c4cnco4)c(OC)c3)C2=O)c1 (stereo not drawn) [Example 3, 1-(3-Methoxy-4-oxazol-5-yl-phenyl)-3-(3-methoxyphenyl)pyrrolidin-2-one]	0.0814 µM
COc1cc(N2CCC(c3ccccc3Cl)C2=O)ccc1-c1cnco1 (stereo not drawn) [Example 4, 3-(2-Chlorophenyl)-1-(3-methoxy-4-oxazol-5-yl-phenyl)pyrrolidin-2-one]	0.678 µM
COc1cc(N2CCCN(Cc3ccccc3)C2=O)ccc1-c1cn[nH]c1 [Example 5, 1-Benzyl-3-[3-methoxy-4-(1H-pyrazol-4-yl)phenyl]hexahydropyrimidin-2-one]	1.33 µM
COc1cc(N2CCCN(Cc3ccccc3Cl)C2=O)ccc1-c1cn[nH]c1 [Example 6, 1-[(2-Chlorophenyl)methyl]-3-[3-methoxy-4-(1H-pyrazol-4-yl)phenyl]hexahydropyrimidin-2-one]	1.99 µM
COc1cccc(CN2CCCN(c3ccc(-c4cn[nH]c4)c(OC)c3)C2=O)c1 [Example 7, 1-[(3-Methoxyphenyl)methyl]-3-[3-methoxy-4-(1H-pyrazol-4-yl)phenyl]hexahydropyrimidin-2-one]	0.114 µM
COc1cc(N2CCC(c3ccccc3)C2=O)ccc1-c1cnco1 (stereo not drawn) [Example 8, 1-(3-Methoxy-4-oxazol-5-yl-phenyl)-3-phenyl-pyrrolidin-2-one]	0.471 µM
COc1cc(N2CCN(Cc3ccccc3)C2=O)ccc1-c1cn[nH]c1 [Example 9, 1-Benzyl-3-[3-methoxy-4-(1H-pyrazol-4-yl)phenyl]imidazolidin-2-one]	0.161 µM
COc1cc(N2CCN(Cc3ccccc3Cl)C2=O)ccc1-c1cn[nH]c1 [Example 10, 1-[(2-Chlorophenyl)methyl]-3-[3-methoxy-4-(1H-pyrazol-4-yl)phenyl]imidazolidin-2-one]	0.27 µM
COc1cccc(CN2CCN(c3ccc(-c4cn[nH]c4)c(OC)c3)C2=O)c1 [Example 11, 1-[(3-Methoxyphenyl)methyl]-3-[3-methoxy-4-(1H-pyrazol-4-yl)phenyl]imidazolidin-2-one]	0.0239 µM
COc1cc(N2CCC(c3ccccc3)C2=O)ccc1-c1cn[nH]c1 (stereo not drawn) [Example 12, 1-[3-Methoxy-4-(1H-pyrazol-4-yl)phenyl]-3-phenyl-pyrrolidin-2-one]	0.0414 µM
O=C1C(c2ccccc2)CCN1c1ccc(-c2cn[nH]c2)cc1 (stereo not drawn) [Example 13, 3-Phenyl-1-[4-(1H-pyrazol-4-yl)phenyl]pyrrolidin-2-one]	0.205 µM
COc1cccc(C2CCN(c3ccc(-c4cn[nH]c4)cc3)C2=O)c1 (stereo not drawn) [Example 14, 3-(3-Methoxyphenyl)-1-[4-(1H-pyrazol-4-yl)phenyl]pyrrolidin-2-one]	0.0405 µM
O=C1C(c2ccc(Cl)cc2)CCN1c1ccc(-c2cn[nH]c2)cc1 (stereo not drawn) [Example 15, 3-(4-Chlorophenyl)-1-[4-(1H-pyrazol-4-yl)phenyl]pyrrolidin-2-one]	0.384 µM
O=C1C(c2ccc(F)cc2)CCN1c1ccc(-c2cn[nH]c2)cc1 (stereo not drawn) [Example 16, 3-(4-Fluorophenyl)-1-[4-(1H-pyrazol-4-yl)phenyl]pyrrolidin-2-one]	0.0417 µM
O=C1C(c2cccc(Cl)c2)CCN1c1ccc(-c2cn[nH]c2)cc1 (stereo not drawn) [Example 17, 3-(3-Chlorophenyl)-1-[4-(1H-pyrazol-4-yl)phenyl]pyrrolidin-2-one]	0.23 µM
COc1cc(N2CCN(Cc3cccc(Cl)c3)C2=O)ccc1-c1cn[nH]c1 [Example 18, 1-[(3-Chlorophenyl)methyl]-3-[3-methoxy-4-(1H-pyrazol-4-yl)phenyl]imidazolidin-2-one]	0.395 µM

SMILES	EC (150% of control)
COc1cc(N2CCN(Cc3cccc(F)c3)C2=O)ccc1-c1cn[nH]c1 [Example 19, 1-[(3-Fluorophenyl)methyl]-3-[3-methoxy-4-(1H-pyrazol-4-yl)phenyl]imidazolidin-2-one]	0.047 µM
COc1cc(N2CCN(Cc3cccc(C(F)(F)F)c3)C2=O)ccc1-c1cn[nH]c1 [Example 20, 1-[3-Methoxy-4-(1H-pyrazol-4-yl)phenyl]-3-[[3-(trifluoromethyl)phenyl]methyl]imidazolidin-2-one]	0.0086 µM
COc1cc(N2CCN(Cc3cccc(OC(F)(F)F)c3)C2=O)ccc1-c1cn[nH]c1 [Example 21, 1-[3-Methoxy-4-(1H-pyrazol-4-yl)phenyl]-3-[[3-(trifluoromethoxy)phenyl]methyl]imidazolidin-2-one]	0.0092 µM
CCOc1cccc(CN2CCN(c3ccc(-c4cn[nH]c4)c(OC)c3)C2=O)c1 [Example 22, 1-[(3-Ethoxyphenyl)methyl]-3-[3-methoxy-4-(1H-pyrazol-4-yl)phenyl]imidazolidin-2-one]	0.0739 µM
COc1cc(N2CCC(Cc3ccccc3)C2=O)ccc1-c1cn[nH]c1 (stereo not drawn) [Example 23, 3-Benzyl-1-(3-methoxy-4-(1H-pyrazol-4-yl)phenyl)pyrrolidin-2-one]	0.612 µM
COc1cccc(C2CCN(c3ccc(-c4cn[nH]c4)c(OC)c3)C2=O)c1 (stereo not drawn) [Example 24, 1-(3-Methoxy-4-(1H-pyrazol-4-yl)phenyl)-3-(3-methoxyphenyl)pyrrolidin-2-one]	0.0299 µM
COc1cc(N2CCC(c3cccc(Cl)c3)C2=O)ccc1-c1cn[nH]c1 (stereo not drawn) [Example 25, 3-(3-Chlorophenyl)-1-(3-methoxy-4-(1H-pyrazol-4-yl)phenyl)pyrrolidin-2-one]	0.0659 µM
COc1cc(N2CCC(c3cccc(F)c3)C2=O)ccc1-c1cn[nH]c1 (stereo not drawn) [Example 26, 3-(3-Fluorophenyl)-1-(3-methoxy-4-(1H-pyrazol-4-yl)phenyl)pyrrolidin-2-one]	0.0776 µM
COc1cccc(CN2CCN(c3ccc(-c4cn[nH]c4)cc3)C2=O)c1 [Example 27, 1-[(3-Methoxyphenyl)methyl]-3-[4-(1H-pyrazol-4-yl)phenyl]imidazolidin-2-one]	0.294 µM
COc1cccc(CN2CCN(c3ccc(-c4cn[nH]c4)c(C)c3)C2=O)c1 [Example 28, 1-[(3-Methoxyphenyl)methyl]-3-[3-methyl-4-(1H-pyrazol-4-yl)phenyl]imidazolidin-2-one]	1.22 µM
COc1cccc(CN2CCN(c3ccc(-c4cn[nH]c4)c(Cl)c3)C2=O)c1 [Example 29, 1-[3-Chloro-4-(1H-pyrazol-4-yl)phenyl]-3-[(3-methoxyphenyl)methyl]imidazolidin-2-one]	0.366 µM
COc1cccc(CN2CCN(c3ccc(-c4cn[nH]c4)cc3F)C2=O)c1 [Example 30, 1-[2-Fluoro-4-(1H-pyrazol-4-yl)phenyl]-3-[(3-methoxyphenyl)methyl]imidazolidin-2-one]	0.0416 µM
COc1cccc(CN2CCN(c3ccc(-c4cn[nH]c4)c(F)c3)C2=O)c1 [Example 31, 1-[3-Fluoro-4-(1H-pyrazol-4-yl)phenyl]-3-[(3-methoxyphenyl)methyl]imidazolidin-2-one]	0.0157 µM
CCOc1cc(N2CCN(Cc3cccc(OC)c3)C2=O)ccc1-c1cn[nH]c1 [Example 32, 1-[3-Ethoxy-4-(1H-pyrazol-4-yl)phenyl]-3-[(3-methoxyphenyl)methyl]imidazolidin-2-one]	0.835 µM
COc1cc(N2CCN(Cc3ccccc3F)C2=O)ccc1-c1cn[nH]c1 [Example 33, 1-[(2-Fluorophenyl)methyl]-3-[3-methoxy-4-(1H-pyrazol-4-yl)phenyl]imidazolidin-2-one]	0.225 µM
COc1cc(N2CCN(Cc3ccccc3C)C2=O)ccc1-c1cn[nH]c1 [Example 34, 1-[3-Methoxy-4-(1H-pyrazol-4-yl)phenyl]-3-(o-tolylmethyl)imidazolidin-2-one]	0.2 µM
COc1cc(N2CCN(Cc3cccc(C)c3)C2=O)ccc1-c1cn[nH]c1 [Example 35, 1-[3-Methoxy-4-(1H-pyrazol-4-yl)phenyl]-3-(m-tolylmethyl)imidazolidin-2-one]	2.65 µM
COc1cc(N2CCC(Cc3cccc(Cl)c3)C2=O)ccc1-c1cn[nH]c1 (stereo not drawn) [Example 36, 3-[(3-Chlorophenyl)methyl]-1-[3-methoxy-4-(1H-pyrazol-4-yl)phenyl]pyrrolidin-2-one]	1.65 µM
